{
  "source": "paper PMC11255254",
  "about": "“ER-associated VAP27-1 and VAP27-3 proteins functionally link the lipid-binding ORP2A at the ER-chloroplast contact sites” (Nature Communications, 2024)",
  "data": [
    {"molecular_target": "T1, ORP2A (His-ORP2A; ORP2A-His) (Arabidopsis thaliana, UniProt Q940Y1)", "T1 construct": "full-length, His6 tag kept (N-terminal in pET16b; also ORP2A-His), E. coli BL21", "T1 sequence (Q940Y1 1-721)": "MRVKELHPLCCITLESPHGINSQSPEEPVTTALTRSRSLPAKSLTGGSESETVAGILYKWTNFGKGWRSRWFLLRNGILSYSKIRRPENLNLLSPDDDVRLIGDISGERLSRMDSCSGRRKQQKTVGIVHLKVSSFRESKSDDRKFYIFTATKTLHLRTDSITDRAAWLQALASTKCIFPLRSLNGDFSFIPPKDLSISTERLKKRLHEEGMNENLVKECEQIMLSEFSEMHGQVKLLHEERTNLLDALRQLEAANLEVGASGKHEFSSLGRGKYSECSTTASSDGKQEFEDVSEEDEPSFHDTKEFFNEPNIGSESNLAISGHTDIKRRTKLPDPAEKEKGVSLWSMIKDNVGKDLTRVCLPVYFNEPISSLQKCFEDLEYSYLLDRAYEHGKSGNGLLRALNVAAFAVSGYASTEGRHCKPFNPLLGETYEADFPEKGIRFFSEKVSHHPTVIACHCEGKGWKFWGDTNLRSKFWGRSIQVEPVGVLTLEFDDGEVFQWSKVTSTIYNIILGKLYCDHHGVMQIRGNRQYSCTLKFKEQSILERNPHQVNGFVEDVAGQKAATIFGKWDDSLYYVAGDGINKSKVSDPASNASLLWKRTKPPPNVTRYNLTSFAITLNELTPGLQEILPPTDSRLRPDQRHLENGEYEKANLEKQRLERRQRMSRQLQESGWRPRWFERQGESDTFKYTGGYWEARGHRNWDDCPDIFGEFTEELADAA", "test": "protein-lipid overlay (fat blot), anti-His immunoblot", "format": "binding", "conditions": "15 μg sterol spotted on nitrocellulose; overnight incubation in purified protein", "values": [
      {"smiles": "CC(C)[C@H](C)CC[C@@H](C)[C@H]1CC[C@H]2[C@@H]3CC=C4C[C@@H](O)CC[C@]4(C)[C@H]3CC[C@]12C", "note": "[campesterol]", "protein-lipid overlay (fat blot), anti-His immunoblot": "recombinant ORP2A-His shows that the protein interacts with β-sitosterol, stigmasterol and campesterol"},
      {"smiles": "CC[C@H](/C=C/[C@@H](C)[C@H]1CC[C@H]2[C@@H]3CC=C4C[C@@H](O)CC[C@]4(C)[C@H]3CC[C@]12C)C(C)C", "note": "[stigmasterol]", "protein-lipid overlay (fat blot), anti-His immunoblot": "recombinant ORP2A-His shows that the protein interacts with β-sitosterol, stigmasterol and campesterol"},
      {"smiles": "CC[C@H](CC[C@@H](C)[C@H]1CC[C@H]2[C@@H]3CC=C4C[C@@H](O)CC[C@]4(C)[C@H]3CC[C@]12C)C(C)C", "note": "[β-sitosterol]", "protein-lipid overlay (fat blot), anti-His immunoblot": "recombinant ORP2A-His shows that the protein interacts with β-sitosterol, stigmasterol and campesterol"}
    ]}
  ]
}
